# Where a SMILES comes first, the peptide text is derived from it. The star is where a group is joined. Cbz = O=C(OCc1ccccc1)*; CH2F = FC*
# Experiments:
# Hela cells = assay: Immunofluorescence confocal microscopy of Omi in Hela cells; format: cell-based, human; details: staurosporine 1 μM, 5 hours; untreated cells mostly punctate and perinuclear
# Jurkat and HL-60 cells = assay: Release of Omi, Smac and cytochrome c to the cytosol and procaspase-3 processing (immunoblot of cytosolic extracts); format: cell-based, human; details: staurosporine 2 μM
# Procedure: FIG. 13 is a scanned image of a blot representing cytosolic extracts from human Jurkat and HL-60 cells bound to GST-BIR3 and immunoblotted with Omi (top panels), Smac (second panels), Cytochrome c (third panels), or caspase-3 (lower panels) antibodies.
# FIG. 14 is a scanned image of a blot representing cytosolic extracts of Jurkat cells treated with TRAIL (1 μg/ml) for the indicated time periods and analyzed by immunoblotting with Omi (top panel), Smac (middle panel), or cytochrome c (bottom panel) antibodies.
# To determine whether Omi is released together with Smac and cytochrome c from the mitochondria to the cytoplasm during apoptosis, we treated Jurkat and HL-60 cells with staurosporine (2 μM), which is known to induce the mitochondrial apoptotic pathway, and analyzed their cytosolic extracts by immunoblot analysis. […] Processing of procaspase-3 also followed a similar time course with maximum processing observed at 6-8 hours after treatment. Very little or no Omi or Smac proteins or processing of procaspase-3 were detected in the extracts at zero-time points.
# 293 and MCF-7 cells = assay: Caspase-dependent processing of GFP-IETD-Omi at the IETD site in transfected cells (immunoblot); format: cell-based; details: cytosolic extracts, zVAD-FMK 20 μM
# Procedure: FIG. 23 is a scanned image of an immunoblot with Flag-HRP antibody of MCF-7 and 293T cells 24 hours following transfected with pEGFP or M-Omi-Flag, GFP-IETD-AVP (AVP) or GFP-IETD-SSA (SSA) expression constructs in the presence or absence of zVAD-FMK (20μM). M-Omi-Flag is similar to the M-Omi-GFP shown in FIG. 20, except that the GFP tag was replaced with a Flag tag.
# (§1) Next, the contribution of the IAP binding activity of Omi to its proapoptotic activity was tested. The MTS of Omi was replaced with a GFP-IETD sequence and mutated at its active site Ser306 to Ala (FIG. 20, GFP-IETD-AVP). Of note, the presence of the IETD sequence between GFP and Omi-S/A allowed caspase-dependent cleavage at the IETD site after the Asp residue and release of mature Omi-S/A in the cytosol of the transfected 293 and MCF-7 cells (FIG. 23). […] Taken together, Omi not only can induce apoptosis through its serine protease activity but also via its ability to bind and neutralize IAPs.
# MCF-7 cells = assay: Apoptosis of MCF-7 cells transfected with cytosolic Omi-GFP fusion proteins; format: cell-based; details: zVAD-FMK 20 μM; MCF-7 cells transfected with M-Omi-GFP
# Procedure: FIG. 20 provides schematic diagrams of the Omi-GFP and GFP-IETD-Omi constructs used to assay the ability of Omi to induce apoptosis or to enhance apoptosis by other stimuli.
# FIG. 21 is a bar graphic representation of the percentages of GFP-positive apoptotic MCF-7 cells 36 hours following transfection with M-Omi-S/A-GFP or pEGFP-N1 alone or M-Omi-GFP together with empty vector or expression construct encoding XIAP, XIAP-BIR3, or caspase-9DN. The cells were also transfected with M-Omi-GFP expression construct in the presence of zVAD-FMK (20 μM).
# XIAP-BIR3 = molecular target: T1, XIAP-BIR3 (Homo sapiens, UniProt P98170); assay: GST-BIR3 precipitation of extracts of transfected 293T cells; format: binding; details: 24 hours after transfection
# T1 construct: Omi associates directly with the BIR3 domain of XIAP
# T1 sequence (P98170 238-358 limits assumed): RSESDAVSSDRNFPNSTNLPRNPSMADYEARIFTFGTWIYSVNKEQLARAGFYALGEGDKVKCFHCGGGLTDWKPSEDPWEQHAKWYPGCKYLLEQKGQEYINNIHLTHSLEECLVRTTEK
# Procedure: FIG. 24 is a scanned image of an immunoblot with Flag-HRP antibody of 293T cells extracts precipitated with GST-BIR3 24 hours after transfection with the indicated expression constructs extracts.
# as §1
molecule,measurement,setting,value
CN[C@@H]1C[C@H]2O[C@@](C)([C@@H]1OC)n1c3ccccc3c3c4c(c5c6ccccc6n2c5c31)C(=O)NC4 [staurosporine],immunofluorescence staining pattern of Omi,Hela cells,showed diffused immunofluorescence staining of Omi
same,"accumulation of cytochrome c, Smac and Omi in the cytosol",Jurkat and HL-60 cells,accumulated in the cytosol of these cells in a time dependent manner
same,time of maximum processing of procaspase-3 after treatment,Jurkat and HL-60 cells,6 to 8 h
"COC(=O)C[C@H](NC(=O)[C@H](C)NC(=O)[C@@H](NC(=O)OCc1ccccc1)C(C)C)C(=O)CF [zVAD-FMK, reference compound] (Cbz-Val-Ala-Asp(OMe)-CH2F)",processing at the IETD site,293 and MCF-7 cells,very little or no processing at the IETD site was observed
same,block of M-Omi-GFP-induced apoptosis,MCF-7 cells,did not block the ability of M-Omi-GFP to induce apoptosis
mature Omi-S/A: mature Omi-S/A released in the cytosol by caspase-dependent cleavage of GFP-IETD-AVP at the IETD site,binding to XIAP-BIR3 (GST-BIR3),XIAP-BIR3,able to bind the GST-BIR3 fusion protein

# From patent US20030073629A1, “Omi and domains thereof that disrupt IAP-caspase interaction” (priority 2001, published 2003)
